Consider one molecule from US11111232B2, “Substituted cyclobutylpyridine and cyclobutylpyrimidine compounds as indoleamine 2,3-dioxygenase (IDO) inhibitors” (MERCK SHARP & DOHME CORP., priority 2017, dated 2021).

The target in assay [1] is T1, IDO1 (Homo sapiens, UniProt P14902). The assay can be described thus: IDO1 cellular assay in Hela cells stimulated with IFNγ. The class given is cell-based. The note with it: IFNγ 100 ng/mL, 300 uM L-tryptophan, about 48 hours, fluorescence readout.
In assay [2] the target is T1, IDO1. The assay can be described thus: IDO1 human whole blood assay. It is filed as cell-based. On the set-up: Human whole blood was drawn in sodium heparin coated tubes from healthy internal donors; from tissue; host or cells: human whole blood from healthy donors, stimulated with LPS and IFNγ. The note with it: LPS and IFNγ 100 ng/mL, 18 h, kynurenine by LC/MS/MS. Here is the method:
IDO1Human Whole Blood Assay
Compounds to be tested were serially diluted in ten 3-fold steps in DMSO starting from 10 mM. […] LPS and IFNγ was prepared in RPMI to a 10× of final conc. (1000 ng/mL), final concentration is 100 ng/mL.
Human whole blood was drawn in sodium heparin coated tubes from healthy internal donors. […] of blood was transferred to each of the wells of a v-bottom 96 well plate. […] of compound was transferred from intermediate dilution plate, and incubated for 15 min. 30 μL from stimulants was then transferred to blood and mixed thoroughly. Plate was covered with breathable membrane and incubated at 37° C. for overnight (18 h).
On day 2 isotope labeled standard of kynurenine and tryptophan was made in water at 10× concentration and […] was added to the blood at […] final concentration. The assay plates were centrifuged at 300×G for 10 min with no brake to separate plasma from red blood cells. […] of plasma samples was removed without disturbing red blood cells. Plasma was diluted with RPMI in 1:1 ratio and proteins were precipitated out with two volume of Acetonitrile. The plates was centrifuged at 4000×G for 60 min. 20 mL of supernatant was carefully transferred to a 384 well plate contain 40 mL of 0.1% formic acid in water and analyzed by LC/MS/MS.
LC/MS/MS analyses were performed using Thermo Fisher's LX4-TSQ Quantum Ultra system. This system consists of four Agilent binary high-performance liquid chromatography (HPLC) pumps and a TSQ Quantum Ultra triple quadruple MS/MS instrument. For each sample, […] were injected onto an Atlantis T3 column (2.1 mm×150 mm, […]) from Waters. The mobile phase gradient pumped at 0.8 mL/min was used to elute the analytes from the column at 25° C. […] Mobile phase A consisted of 0.1% formic acid in water. Mobile phase B consisted of 0.1% of formic acid in acetonitrile. Data was acquired in positive mode using a HESI interface. The operational parameters for the TSQ Quantum Ultra instrument were a spray voltage of 4000 V, capillary temperature of 380° C., vaporizer temperature 400° C., shealth gas 60 arbitrary units, Aux gas 20 arbitrary units, tube lens 85 and collision gas 1.2 mTorr. […] The peak area was integrated by Xcalibur Quan software. The ratios between the kynurenine generated in the reaction and 2D6-Kynurenine spiked-in internal standard were used to generate percentage inhibition and IC50 values. Compounds were titrated and IC50′s were calculated by 4 parameter sigmoidal curve fitting formula.

T1 sequence (P14902 whole entry): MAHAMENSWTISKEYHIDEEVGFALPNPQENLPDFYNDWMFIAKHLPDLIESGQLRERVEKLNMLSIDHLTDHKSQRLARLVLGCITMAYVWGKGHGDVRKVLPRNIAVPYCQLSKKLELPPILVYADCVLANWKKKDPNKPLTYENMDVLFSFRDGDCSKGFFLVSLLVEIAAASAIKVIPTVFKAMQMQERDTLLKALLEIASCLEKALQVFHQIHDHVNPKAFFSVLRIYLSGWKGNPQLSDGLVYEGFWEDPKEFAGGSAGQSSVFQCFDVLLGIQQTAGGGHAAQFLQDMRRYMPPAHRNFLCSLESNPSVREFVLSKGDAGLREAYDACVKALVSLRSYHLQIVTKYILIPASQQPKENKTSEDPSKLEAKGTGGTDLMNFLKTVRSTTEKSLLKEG

Regarding `O=C(Nc1ccc(C2(C(=O)Nc3ccc(F)cc3)CCC2)cn1)C1CCCCC1` [Example 15, N-(5-{1-[(4-fluorophenyl)carbamoyl]cyclobutyl}pyridin-2-yl) cyclohexanecarboxamide], the values for the half-maximal inhibitory concentration (IC50) in assay [1] and in assay [2] were 10 nM and 2010 nM, respectively.
